From patent US10710978B2, “STK4 inhibitors for treatment of hematologic malignancies” (Dana-Farber Cancer Institute, Inc., priority 2015, dated 2020)
Where two headings read alike, the source gives them in different places.

Assays:
Assay in all cases: KiNativ assay
Assay type in all cases: binding
Conditions in all cases: H929 live cell
ULK1 = ULK1 (Homo sapiens (Human), UniProt O75385)
Method: (§1) Biochemical IC50s of the compounds of the present disclosure against various kinases were measured in a KiNativ assay. Compounds were screened in duplicate at 10 μM in H929 live cell. IC50 was measured via Mass spectroscopy (MS).

NEK9 = NEK9 (Homo sapiens (Human), UniProt Q8TD19)
Method: as §1

TBK1 = TBK1 (Homo sapiens (Human), UniProt Q9UHD2)
Method: as §1

MST4 = test system: MST4
Method: as §1

TYK2 domain2 = TYK2 domain2 (Homo sapiens (Human), UniProt P29597)
Method: as §1

HPK1 = HPK1 (Homo sapiens (Human), UniProt Q92918)
Method: as §1

FRAP = FRAP (Homo sapiens (Human), UniProt P42345)
Method: as §1

RSKL1 = RSKL1 (Homo sapiens (Human), UniProt Q96S38)
Method: as §1

MAP2K7 = MAP2K7 (Homo sapiens (Human), UniProt O14733)
Method: as §1

PFTAIRE1 = PFTAIRE1 (Homo sapiens (Human), UniProt O94921)
Method: as §1

MPSK1 = MPSK1 (Homo sapiens (Human), UniProt O75716)
Method: as §1

OSR1 = OSR1 (Homo sapiens (Human), UniProt O95747)
Method: as §1

MAP2K3 = MAP2K3 (Homo sapiens (Human), UniProt P46734)
Method: as §1

AurA, AurB, AurC = test system: AurA, AurB, AurC
Method: as §1

RSK2 domain1 = RSK2 domain1 (Homo sapiens (Human), UniProt P51812)
Method: as §1

MST4, YSK1 = test system: MST4, YSK1
Method: as §1

MARK1, MARK2 = test system: MARK1, MARK2
Method: as §1

PKD2 = PKD2 (Homo sapiens (Human), UniProt Q9BZL6)
Method: as §1

DGKH = DGKH (Homo sapiens (Human), UniProt Q86XP1)
Method: as §1

CK1g2 = CK1g2 (Homo sapiens (Human), UniProt P78368)
Method: as §1

MARK3 = MARK3 (Homo sapiens (Human), UniProt P27448)
Method: as §1

PHKg2 = PHKg2 (Homo sapiens (Human), UniProt P15735)
Method: as §1

PI4KA, PI4KAP2 = test system: PI4KA, PI4KAP2
Method: as §1

SMG1 = SMG1 (Homo sapiens (Human), UniProt Q96Q15)
Method: as §1

IKKa = IKKa (Homo sapiens (Human), UniProt O15111)
Method: as §1

MST1 = MST1 (Homo sapiens (Human), UniProt Q13043)
Method: as §1

PLK1 = PLK1 (Homo sapiens (Human), UniProt P53350)
Method: as §1

MAP2K1 = MAP2K1 (Homo sapiens (Human), UniProt Q02750)
Method: as §1

CK1a = CK1a (Homo sapiens (Human), UniProt P48729)
Method: as §1

CDK5 = CDK5 (Homo sapiens (Human), UniProt Q00535)
Method: as §1

EphB2 = EphB2 (Homo sapiens (Human), UniProt P29323)
Method: as §1

BRAF = BRAF (Homo sapiens (Human), UniProt P15056)
Method: as §1

MAP2K5 = MAP2K5 (Homo sapiens (Human), UniProt Q13163)
Method: as §1

PKN1 = PKN1 (Homo sapiens (Human), UniProt Q16512)
Method: as §1

Chain of CDK5 (Q00535 whole entry): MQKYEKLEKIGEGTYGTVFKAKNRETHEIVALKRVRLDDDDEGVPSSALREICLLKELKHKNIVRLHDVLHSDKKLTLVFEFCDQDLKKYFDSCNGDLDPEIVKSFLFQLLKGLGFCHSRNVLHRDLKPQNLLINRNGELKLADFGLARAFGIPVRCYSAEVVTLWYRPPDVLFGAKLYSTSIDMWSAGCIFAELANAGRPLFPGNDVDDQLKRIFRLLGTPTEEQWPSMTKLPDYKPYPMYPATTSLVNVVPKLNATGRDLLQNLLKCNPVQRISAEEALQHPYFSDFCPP
Chain of MAP2K1 (Q02750 whole entry): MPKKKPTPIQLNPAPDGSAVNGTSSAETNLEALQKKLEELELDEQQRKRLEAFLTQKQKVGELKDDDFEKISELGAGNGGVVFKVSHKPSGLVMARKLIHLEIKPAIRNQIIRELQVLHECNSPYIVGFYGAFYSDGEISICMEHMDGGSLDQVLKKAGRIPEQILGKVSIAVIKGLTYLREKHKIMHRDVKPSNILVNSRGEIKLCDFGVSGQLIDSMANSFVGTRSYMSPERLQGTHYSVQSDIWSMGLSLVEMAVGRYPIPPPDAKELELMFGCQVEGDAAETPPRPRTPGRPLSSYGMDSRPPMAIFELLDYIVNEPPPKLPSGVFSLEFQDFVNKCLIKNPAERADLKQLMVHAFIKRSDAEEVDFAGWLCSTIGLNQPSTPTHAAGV
Chain of MAP2K3 (P46734 whole entry): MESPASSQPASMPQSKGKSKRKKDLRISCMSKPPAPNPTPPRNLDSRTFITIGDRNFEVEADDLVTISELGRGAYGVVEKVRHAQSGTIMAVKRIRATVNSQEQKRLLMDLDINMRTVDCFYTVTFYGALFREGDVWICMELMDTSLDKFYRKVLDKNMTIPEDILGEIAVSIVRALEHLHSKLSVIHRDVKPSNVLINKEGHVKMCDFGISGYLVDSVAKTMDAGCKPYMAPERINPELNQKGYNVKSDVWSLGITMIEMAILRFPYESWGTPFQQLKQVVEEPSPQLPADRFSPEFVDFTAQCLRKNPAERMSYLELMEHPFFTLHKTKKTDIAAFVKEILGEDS
Chain of BRAF (P15056 whole entry): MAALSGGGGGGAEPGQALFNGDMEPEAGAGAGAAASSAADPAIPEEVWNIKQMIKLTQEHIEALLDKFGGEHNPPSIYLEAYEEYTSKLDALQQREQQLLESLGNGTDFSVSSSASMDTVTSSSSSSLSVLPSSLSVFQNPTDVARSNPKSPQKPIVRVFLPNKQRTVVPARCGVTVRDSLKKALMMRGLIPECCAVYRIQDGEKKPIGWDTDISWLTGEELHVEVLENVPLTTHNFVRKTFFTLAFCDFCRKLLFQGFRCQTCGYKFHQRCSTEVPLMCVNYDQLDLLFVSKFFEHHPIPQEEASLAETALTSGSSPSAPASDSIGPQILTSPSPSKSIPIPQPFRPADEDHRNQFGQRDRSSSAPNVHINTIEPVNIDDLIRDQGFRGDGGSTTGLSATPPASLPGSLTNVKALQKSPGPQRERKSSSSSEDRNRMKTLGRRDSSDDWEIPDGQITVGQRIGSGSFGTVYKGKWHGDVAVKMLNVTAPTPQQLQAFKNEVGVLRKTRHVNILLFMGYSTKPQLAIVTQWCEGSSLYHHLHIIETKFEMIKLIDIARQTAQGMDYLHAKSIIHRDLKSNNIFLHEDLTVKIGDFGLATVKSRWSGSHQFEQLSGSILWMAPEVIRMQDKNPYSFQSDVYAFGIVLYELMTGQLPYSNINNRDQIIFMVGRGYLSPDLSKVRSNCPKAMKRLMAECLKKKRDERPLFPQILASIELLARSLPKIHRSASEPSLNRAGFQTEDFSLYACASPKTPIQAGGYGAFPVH
Chain of PKN1 (Q16512 whole entry): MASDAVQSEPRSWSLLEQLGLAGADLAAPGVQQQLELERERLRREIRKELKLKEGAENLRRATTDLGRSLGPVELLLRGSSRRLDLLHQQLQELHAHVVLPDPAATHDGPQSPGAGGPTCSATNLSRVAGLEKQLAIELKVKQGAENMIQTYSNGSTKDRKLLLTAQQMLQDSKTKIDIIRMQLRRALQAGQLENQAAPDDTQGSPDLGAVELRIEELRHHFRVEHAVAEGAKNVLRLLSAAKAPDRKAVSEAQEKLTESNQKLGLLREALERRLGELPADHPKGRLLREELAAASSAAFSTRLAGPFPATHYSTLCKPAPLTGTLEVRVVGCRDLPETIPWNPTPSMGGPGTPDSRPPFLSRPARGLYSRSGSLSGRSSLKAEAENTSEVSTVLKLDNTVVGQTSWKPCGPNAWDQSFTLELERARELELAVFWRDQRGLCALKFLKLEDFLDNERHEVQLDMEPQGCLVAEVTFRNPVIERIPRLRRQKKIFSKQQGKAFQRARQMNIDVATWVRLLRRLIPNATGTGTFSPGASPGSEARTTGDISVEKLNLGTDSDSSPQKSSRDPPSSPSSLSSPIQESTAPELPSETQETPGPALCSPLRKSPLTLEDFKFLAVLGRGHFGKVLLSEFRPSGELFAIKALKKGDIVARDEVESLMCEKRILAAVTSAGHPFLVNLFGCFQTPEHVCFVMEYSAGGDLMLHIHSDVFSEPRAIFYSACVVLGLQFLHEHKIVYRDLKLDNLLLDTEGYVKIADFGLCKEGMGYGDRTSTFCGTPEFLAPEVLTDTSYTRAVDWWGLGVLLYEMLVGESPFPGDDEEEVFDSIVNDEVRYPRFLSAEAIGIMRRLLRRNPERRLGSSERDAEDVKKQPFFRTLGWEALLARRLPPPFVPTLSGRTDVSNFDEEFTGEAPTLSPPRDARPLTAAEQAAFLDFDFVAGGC
Chain of PLK1 (P53350 whole entry): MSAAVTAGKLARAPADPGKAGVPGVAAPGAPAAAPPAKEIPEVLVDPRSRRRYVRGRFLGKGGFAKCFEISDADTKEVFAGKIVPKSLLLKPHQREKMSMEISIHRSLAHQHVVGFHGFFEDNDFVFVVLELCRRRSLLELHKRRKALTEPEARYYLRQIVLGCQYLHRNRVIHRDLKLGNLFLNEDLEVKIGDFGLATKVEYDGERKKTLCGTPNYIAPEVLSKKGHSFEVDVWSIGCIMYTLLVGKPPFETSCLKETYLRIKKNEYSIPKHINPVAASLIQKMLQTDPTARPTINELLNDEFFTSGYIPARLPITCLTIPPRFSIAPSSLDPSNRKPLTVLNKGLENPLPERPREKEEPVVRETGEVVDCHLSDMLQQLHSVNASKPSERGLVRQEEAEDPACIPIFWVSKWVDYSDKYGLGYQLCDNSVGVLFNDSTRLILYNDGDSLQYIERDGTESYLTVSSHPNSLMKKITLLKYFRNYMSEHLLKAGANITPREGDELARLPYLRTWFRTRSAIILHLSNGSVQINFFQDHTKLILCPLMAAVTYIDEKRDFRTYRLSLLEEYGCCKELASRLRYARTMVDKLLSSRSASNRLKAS
Chain of MAP2K5 (Q13163 whole entry): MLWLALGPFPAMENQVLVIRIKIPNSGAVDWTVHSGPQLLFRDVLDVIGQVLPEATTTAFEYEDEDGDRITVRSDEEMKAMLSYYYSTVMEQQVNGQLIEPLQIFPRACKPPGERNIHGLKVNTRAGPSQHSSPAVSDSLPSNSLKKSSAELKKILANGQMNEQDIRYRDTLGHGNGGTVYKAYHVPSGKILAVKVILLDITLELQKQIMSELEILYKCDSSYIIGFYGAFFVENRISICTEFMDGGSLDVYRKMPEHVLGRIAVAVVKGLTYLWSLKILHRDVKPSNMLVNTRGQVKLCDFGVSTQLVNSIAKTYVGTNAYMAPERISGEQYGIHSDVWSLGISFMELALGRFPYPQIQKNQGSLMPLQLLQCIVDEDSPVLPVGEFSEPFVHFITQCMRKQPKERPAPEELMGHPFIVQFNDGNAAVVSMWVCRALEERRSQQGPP
Chain of HPK1 (Q92918 whole entry): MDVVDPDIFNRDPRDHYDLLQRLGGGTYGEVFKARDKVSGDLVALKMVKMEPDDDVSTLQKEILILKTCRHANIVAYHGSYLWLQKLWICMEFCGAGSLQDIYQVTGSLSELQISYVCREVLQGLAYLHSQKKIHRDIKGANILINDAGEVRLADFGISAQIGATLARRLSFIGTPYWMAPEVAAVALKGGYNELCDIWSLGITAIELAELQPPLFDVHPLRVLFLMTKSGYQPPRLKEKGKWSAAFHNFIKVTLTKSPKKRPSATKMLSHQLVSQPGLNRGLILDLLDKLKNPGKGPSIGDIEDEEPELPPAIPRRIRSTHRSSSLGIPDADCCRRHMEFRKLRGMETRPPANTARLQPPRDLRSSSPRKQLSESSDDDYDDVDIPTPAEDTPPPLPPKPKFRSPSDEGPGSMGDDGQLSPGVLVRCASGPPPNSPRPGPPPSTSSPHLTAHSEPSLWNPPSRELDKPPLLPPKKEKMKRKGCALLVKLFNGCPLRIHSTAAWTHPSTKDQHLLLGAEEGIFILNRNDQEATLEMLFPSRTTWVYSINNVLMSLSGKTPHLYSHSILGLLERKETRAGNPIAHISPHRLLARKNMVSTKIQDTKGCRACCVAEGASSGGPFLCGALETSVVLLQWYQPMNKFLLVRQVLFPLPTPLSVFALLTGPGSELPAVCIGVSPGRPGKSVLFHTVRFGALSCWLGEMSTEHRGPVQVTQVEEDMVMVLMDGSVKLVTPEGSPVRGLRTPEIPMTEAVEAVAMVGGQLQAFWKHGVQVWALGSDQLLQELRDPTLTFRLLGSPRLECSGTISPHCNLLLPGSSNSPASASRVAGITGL
Chain of MPSK1 (O75716 whole entry): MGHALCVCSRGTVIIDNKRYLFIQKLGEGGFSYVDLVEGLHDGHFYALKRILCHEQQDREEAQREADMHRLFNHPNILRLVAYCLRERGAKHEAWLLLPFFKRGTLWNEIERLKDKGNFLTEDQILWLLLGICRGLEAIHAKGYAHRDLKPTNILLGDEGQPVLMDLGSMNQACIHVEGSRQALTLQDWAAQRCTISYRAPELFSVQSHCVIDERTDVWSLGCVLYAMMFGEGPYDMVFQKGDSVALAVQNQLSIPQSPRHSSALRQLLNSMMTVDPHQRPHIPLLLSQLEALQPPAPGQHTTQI

`Nc1ncc(-c2cccc3ncsc23)cc1-c1ccc2c(c1)CCNC2=O` [Compound I-13, 6-(2-amino-5-(benzo[d]thiazol-7-yl)pyridin-3-yl)-3,4-dihydroisoquinolin-1(2H)-one] gave an inhibition at 10 µM (ULK1; read-out: % inhibition (range)) of 0%, an inhibition at 10 µM (ULK1; read-out: inhibition (10 μM)) of -23.4% and an inhibition at 10 µM (NEK9; read-out: % inhibition (range)) of 0%. The inhibition at 10 µM (NEK9; read-out: inhibition (10 μM)) was -10%, the inhibition at 10 µM (TBK1; read-out: % inhibition (range)) was 0% and the inhibition at 10 µM (TBK1; read-out: inhibition (10 μM)) was -23.1%. For the same compound, the “% inhibition (range)” value (MST4; 10 μM) was 0.0%, the “inhibition (10 μM)” value (MST4) was 29.3% and the inhibition at 10 µM (TYK2 domain2; read-out: % inhibition (range)) was 0%. For the same compound, the inhibition at 10 µM (TYK2 domain2; read-out: inhibition (10 μM)) was 0.6%, the inhibition at 10 µM (HPK1; read-out: % inhibition (range)) was 50 to 75% and the inhibition at 10 µM (HPK1; read-out: inhibition (10 μM)) was 52.1%. The inhibition at 10 µM (FRAP; read-out: % inhibition (range)) was 0%, the inhibition at 10 µM (FRAP; read-out: inhibition (10 μM)) was 32.5% and the inhibition at 10 µM (RSKL1; read-out: % inhibition (range)) was 0%. It also gave an inhibition at 10 µM (RSKL1; read-out: inhibition (10 μM)) of 1.6%, an inhibition at 10 µM (MAP2K7; read-out: % inhibition (range)) of 0% and an inhibition at 10 µM (MAP2K7; read-out: inhibition (10 μM)) of 15.1%. It also gave an inhibition at 10 µM (PFTAIRE1; read-out: % inhibition (range)) of 35 to 50%, an inhibition at 10 µM (PFTAIRE1; read-out: inhibition (10 μM)) of 49.2% and an inhibition at 10 µM (MPSK1; read-out: % inhibition (range)) of 0%. The inhibition at 10 µM (MPSK1; read-out: inhibition (10 μM)) was -28.8%, the inhibition at 10 µM (OSR1; read-out: % inhibition (range)) was 0% and the inhibition at 10 µM (OSR1; read-out: inhibition (10 μM)) was 1.4%. For the same compound, the inhibition at 10 µM (MAP2K3; read-out: % inhibition (range)) was 0%, the inhibition at 10 µM (MAP2K3; read-out: inhibition (10 μM)) was 1.1% and the “% inhibition (range)” value (AurA, AurB, AurC; 10 μM) was 0.0%. For the same compound, the “inhibition (10 μM)” value (AurA, AurB, AurC) was 17.7%, the inhibition at 10 µM (RSK2 domain1; read-out: % inhibition (range)) was 0% and the inhibition at 10 µM (RSK2 domain1; read-out: inhibition (10 μM)) was 19.2%. The “% inhibition (range)” value (MST4, YSK1; 10 μM) was 0.0%, the “inhibition (10 μM)” value (MST4, YSK1) was −17.0% and the “% inhibition (range)” value (MARK1, MARK2; 10 μM) was 0.0%. For the same compound, the “inhibition (10 μM)” value (MARK1, MARK2) was 2.9%, the inhibition at 10 µM (PKD2; read-out: % inhibition (range)) was 50 to 75% and the inhibition at 10 µM (PKD2; read-out: inhibition (10 μM)) was 52.1%. The inhibition at 10 µM (DGKH; read-out: % inhibition (range)) was 0%, the inhibition at 10 µM (DGKH; read-out: inhibition (10 μM)) was 25.7% and the inhibition at 10 µM (CK1g2; read-out: % inhibition (range)) was > 90%. For the same compound, the inhibition at 10 µM (CK1g2; read-out: inhibition (10 μM)) was > 90%, the inhibition at 10 µM (MARK3; read-out: % inhibition (range)) was 35 to 50% and the inhibition at 10 µM (MARK3; read-out: inhibition (10 μM)) was 46.2%. The inhibition at 10 µM (PHKg2; read-out: % inhibition (range)) was 0%, the inhibition at 10 µM (PHKg2; read-out: inhibition (10 μM)) was -27.5% and the “% inhibition (range)” value (PI4KA, PI4KAP2; 10 μM) was 0.0%. The “inhibition (10 μM)” value (PI4KA, PI4KAP2) was −16.1%, the inhibition at 10 µM (SMG1; read-out: % inhibition (range)) was 50 to 75% and the inhibition at 10 µM (SMG1; read-out: inhibition (10 μM)) was 61%. For the same compound, the inhibition at 10 µM (IKKa; read-out: % inhibition (range)) was 0%, the inhibition at 10 µM (IKKa; read-out: inhibition (10 μM)) was 2.6% and the inhibition at 10 µM (MST1; read-out: % inhibition (range)) was 75 to 90%. For the same compound, the inhibition at 10 µM (MST1; read-out: inhibition (10 μM)) was 89%, the inhibition at 10 µM (PLK1; read-out: % inhibition (range)) was 0% and the inhibition at 10 µM (PLK1; read-out: inhibition (10 μM)) was 6.6%. The inhibition at 10 µM (MAP2K1; read-out: % inhibition (range)) was 0%, the inhibition at 10 µM (MAP2K1; read-out: inhibition (10 μM)) was -27.4% and the inhibition at 10 µM (CK1a; read-out: % inhibition (range)) was 0%. For the same compound, the inhibition at 10 µM (CK1a; read-out: inhibition (10 μM)) was -17.4%, the inhibition at 10 µM (CDK5; read-out: % inhibition (range)) was 0% and the inhibition at 10 µM (CDK5; read-out: inhibition (10 μM)) was 20%. For the same compound, the inhibition at 10 µM (EphB2; read-out: % inhibition (range)) was 0%, the inhibition at 10 µM (EphB2; read-out: inhibition (10 μM)) was 22.1% and the inhibition at 10 µM (BRAF; read-out: % inhibition (range)) was 0%. For the same compound, the inhibition at 10 µM (BRAF; read-out: inhibition (10 μM)) was 10.2%, the inhibition at 10 µM (MAP2K5; read-out: % inhibition (range)) was 0% and the inhibition at 10 µM (MAP2K5; read-out: inhibition (10 μM)) was 13.4%. For the same compound, the inhibition at 10 µM (PKN1; read-out: % inhibition (range)) was 0% and the inhibition at 10 µM (PKN1; read-out: inhibition (10 μM)) was 19%.
